# Assay results published in paper PMC6542793, “The identification of small molecule inhibitors of the plant inositol phosphorylceramide synthase which demonstrate herbicidal activity” (Scientific Reports, 2019).
# “And” between values parts separate entries of the source, which are not always exact repeats. Equal values may be shown once. “Also recorded” adds a separate entry of the source. Starred links: 1 amine or outer side, 2 acyl side, 3 side chain; linkers in the order of their positions; H or OH if unused. Non-standard residues stand in square brackets, D forms with d. Residues, ends and D or L forms follow the SMILES beside them. X1 = CC[C@@H](C)[C@@H](O[*:1])C(=O)[*:2]; NMeVal(β-OH) = CN[C@H](C(=O)O)C(C)(C)O; NMeF = CN[C@@H](Cc1ccccc1)C(=O)O; aIle = CC[C@@H](C)[C@H](N)C(=O)O; NMeV = CN[C@H](C(=O)O)C(C)C
# Legend:
# Arabidopsis seedlings = assay: In vivo screening, Arabidopsis seedlings grown on agar; set-up: species or system A. thaliana (Col0)
# Experimental: In vivo testing of the phenylamidine Compound 1 was undertaken against Arabidopsis seedlings grown on agar.
# A. thaliana (Col0) seedlings were grown for 10 days on 0.8% Murashige and Skoog (MS) agar and then transferred to 1.2% MS agar containing compounds at the desired concentrations or DMSO as a control. Plants were grown at 20 °C under 16 hour day/8 hour night photoperiod.
# Aur1p [1] = biological target: T1, Aur1p (Saccharomyces cerevisiae, UniProt P36107); assay: Secondary screening, 96-well plate microsomal in vitro IPCS enzyme assay (Aur1p control); type: biochemical
# T1 construct: The complete open reading frames of AtIPCS2 and AUR1p were amplified from cDNA or GenEZ ORF Clones; made in house; microsomal membranes
# T1 sequence (P36107 1-401): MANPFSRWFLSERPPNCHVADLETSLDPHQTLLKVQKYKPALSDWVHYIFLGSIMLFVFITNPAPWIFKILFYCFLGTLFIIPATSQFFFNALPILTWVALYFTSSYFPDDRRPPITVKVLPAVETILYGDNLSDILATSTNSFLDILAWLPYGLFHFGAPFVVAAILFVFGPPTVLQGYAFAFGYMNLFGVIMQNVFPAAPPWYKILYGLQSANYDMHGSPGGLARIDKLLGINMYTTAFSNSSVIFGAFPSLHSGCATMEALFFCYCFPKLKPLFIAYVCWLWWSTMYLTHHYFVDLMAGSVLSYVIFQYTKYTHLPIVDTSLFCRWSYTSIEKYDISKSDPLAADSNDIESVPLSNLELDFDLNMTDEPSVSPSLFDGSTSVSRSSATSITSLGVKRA
# T1 sequence (Q06346 1-221 partner): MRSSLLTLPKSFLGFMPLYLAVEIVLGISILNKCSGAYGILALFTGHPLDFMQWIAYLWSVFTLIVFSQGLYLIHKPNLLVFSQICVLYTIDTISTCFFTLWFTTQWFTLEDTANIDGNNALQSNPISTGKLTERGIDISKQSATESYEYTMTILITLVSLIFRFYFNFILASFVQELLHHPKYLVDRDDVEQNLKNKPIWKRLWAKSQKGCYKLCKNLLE
# Experimental: (§1) In the secondary screening stage the previously described microsomal-based in vitro IPCS assay was adapted and utilised. Initially, all 106 selective hits from the primary screen were tested, in duplicate, at 10 µM.
# (§2) Microsomal material was prepared from MSY23-3C pESC-LEU_AtIPCS2 and MSY23-3C pESC-LEU_AUR1 as previously described. IPCS turnover was assayed using HPTLC (Merck) and imaged using a Fuji FLA−3000 reader and AIDA Image Analyser® software (version 3.52) as previously described. Subsequently, a 96-well plate assay was formatted based on the protocol described by Mina et al.[17]. Following optimisation of substrate concentration and incubation time, each compound at the desired concentration (100 µM to 46 nM; in triplicate), was incubated in 96-well plates (Corning® Costar®) in phosphate buffer (71.4 mM, pH 7.0) with soybean PI (100 µM, final concentration, Avanti), NBD-C6-phytoceramide (15 µM; ThermoFisher) and microsomal membranes (0.3–0.4 Units[17]). Following incubation for 60 minutes (or 40 minutes for MSY23-3C pESC-LEU_AUR1 membranes) at 30 °C the reaction was quenched by the addition of 200 µl methanol per well, the reaction product separated using exchange chromatography in 96-well filter plates (Millipore)[17] and the fluorescence measured at Ex460/Em540 using a fluorescence Microplate Reader (Biotek Synergy H4 with Gen5™). […]
# AtIPCS2 [2] = biological target: T2, AtIPCS2 (Arabidopsis thaliana, UniProt Q9SH93); assay: Secondary screening, 96-well plate microsomal in vitro IPCS enzyme assay (AtIPCS2); type: biochemical; details: AtIPCS2 IC50 (95% CI), microsomal membranes, dose response 100 µM to 46 nM, triplicate
# T2 construct: The complete open reading frames of AtIPCS2 and AUR1p were amplified from cDNA or GenEZ ORF Clones; made in house; microsomal membranes
# T2 sequence (Q9SH93 1-305): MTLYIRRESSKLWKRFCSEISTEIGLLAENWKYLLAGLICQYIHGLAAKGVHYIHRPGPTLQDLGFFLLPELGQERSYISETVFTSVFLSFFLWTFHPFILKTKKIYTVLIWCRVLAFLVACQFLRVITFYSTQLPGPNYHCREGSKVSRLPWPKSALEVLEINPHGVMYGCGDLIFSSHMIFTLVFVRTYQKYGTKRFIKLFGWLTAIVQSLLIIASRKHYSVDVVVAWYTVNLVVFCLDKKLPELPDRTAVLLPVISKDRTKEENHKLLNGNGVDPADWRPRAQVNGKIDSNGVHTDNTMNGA
# Experimental: as §1, §2
# Aur1p [3] = biological target: T1, Aur1p; assay: HPTLC in vitro IPCS assay of microsomal extracts, NBD-IPC production (Aur1p); type: biochemical; details: presence vs absence of AbA
# Experimental: Microsomal material was prepared from MSY23-3C pESC-LEU_AtIPCS2 and MSY23-3C pESC-LEU_AUR1 as previously described[33]. IPCS turnover was assayed using HPTLC (Merck) and imaged using a Fuji FLA−3000 reader and AIDA Image Analyser® software (version 3.52) as previously described[17].
# AtIPCS2 [4] = biological target: T2, AtIPCS2; assay: HPTLC in vitro IPCS assay of microsomal extracts, NBD-IPC production (AtIPCS2); type: biochemical; details: presence vs absence of AbA
# Experimental: In the quadruple pdr1∆ pdr3∆ pdr16∆ pdr17∆ strain, AUR1 was deleted and replaced by a HIS3 selectable marker, with growth supported by expression of the essential AUR1 gene from the plasmid pRS316-AUR1 under uracil selection. […] (Fig. 2).
# Figure 2 HPTLC separation of in vitro assayed Aur1p and AtIPCS2 showing the production of NBD-IPC in the presence (+) and absence (−) of AbA. […] NBD-Cer is the substrate, NBD-C6-phytoceramide.
# as §2, with “Following optimisation of substrate concentration and incubation time, each compound at the desired concentration (100 µM to 46 nM; in triplicate), was incubated in 96-well plates (Corning® Costar®) in phosphate buffer (71.4 mM, pH 7.0) with soybean PI (100 µM, final concentration, Avanti), NBD-C6-phytoceramide (15 µM; ThermoFisher) and microsomal membranes (0.3–0.4 Units[17]).” left out
# fungal IPCS = system: fungal IPCS; set-up: method as in PMID 8593016, PMID 9405490, PMID 9614099, PMID 17420565, PMID 19644519; details: inhibitors of the fungal IPCS; cited from earlier work
compound,measurement,setting,value
Cc1cc(Oc2ccc(C#N)c(CC(C)(C)C)c2)c(C)cc1N=CN1CCCCC1 [Compound 1],phenotype of treated seedlings,"Arabidopsis seedlings; 7 day old seedlings on agar containing 10 and 40 µM, compared to DMSO control","clear purple patches associated with anthocyanin biosynthesis in response to stress[47], and an absence of lateral root development"
same,"effects on wild type Col-0 Arabidopsis seedlings, in words","Arabidopsis seedlings; in vivo screening, dose response","dose dependent effects with decreased lateral root development, and distinctive purple leaf patches; also recorded: induce the plant stress response"
same,concentration at which treatment restricted growth and led to purple leaf patches,"Arabidopsis seedlings; tested at 3.7, 11, 33 and 100 µM, compared to DMSO control",≥ 11 µM
same,IC50,Aur1p [1],> 50 µM
same,IC50,AtIPCS2 [2],4.02 µM and < 5 µM
CC[C@@H](C)[C@@H]1NC(=O)[C@@H]2CCCN2C(=O)[C@H](Cc2ccccc2)N(C)C(=O)[C@H](Cc2ccccc2)NC(=O)[C@H](C(C)C)N(C)C(=O)[C@@H]([C@H](C)CC)OC(=O)[C@H](C(C)(C)O)N(C)C(=O)[C@H](CC(C)C)NC(=O)[C@H](C(C)C)N(C)C1=O [aureobasidin A] (cyclo(F[NMeF]P[aIle][NMeV]L[NMeVal(β-OH)][X1][NMeV])),sensitivity of Aur1p activity (NBD-IPC production) to the compound,Aur1p [3],Only the fungal enzyme Aur1p is sensitive
same,sensitivity of AtIPCS2 activity (NBD-IPC production) to the compound,AtIPCS2 [4],insensitive
same,IC50 against Saccharomyces cerevisiae,fungal IPCS,low nano-molar
CCCCCCCCCC[C@H](C)[C@@H](O)[C@@H](C)/C=C(C)/C=C(\C)C(=O)[C@H](C)/C=C(\C)C(=O)O[C@H](CO)[C@@H](O)[C@H](O)C(=O)O [khafrefungin],IC50 against Saccharomyces cerevisiae,fungal IPCS,low nano-molar
haplofungin,IC50 against Saccharomyces cerevisiae,fungal IPCS,low nano-molar
pleofungin,IC50 against Saccharomyces cerevisiae,fungal IPCS,low nano-molar
rustimicin,IC50 against Saccharomyces cerevisiae,fungal IPCS,low nano-molar
